Reference: ChEMBL document CHEMBL5550132, “Structure-activity relationship in NOD2 agonistic muramyl dipeptides” (Eur J Med Chem, 2024)

target: T1, Nuclear factor NF-kappa-B complex (Homo sapiens) (UniProt Q00653+P19838+Q04206); experiment: Activation of NF-KappaB (unknown origin) expressed in HEK293T cells assessed as fold change at 10 ng incubated for 12 hrs by Renilla luciferase assay; format: cell-based; conditions: filed as activator
T1 sequence (P19838 whole entry, looked up): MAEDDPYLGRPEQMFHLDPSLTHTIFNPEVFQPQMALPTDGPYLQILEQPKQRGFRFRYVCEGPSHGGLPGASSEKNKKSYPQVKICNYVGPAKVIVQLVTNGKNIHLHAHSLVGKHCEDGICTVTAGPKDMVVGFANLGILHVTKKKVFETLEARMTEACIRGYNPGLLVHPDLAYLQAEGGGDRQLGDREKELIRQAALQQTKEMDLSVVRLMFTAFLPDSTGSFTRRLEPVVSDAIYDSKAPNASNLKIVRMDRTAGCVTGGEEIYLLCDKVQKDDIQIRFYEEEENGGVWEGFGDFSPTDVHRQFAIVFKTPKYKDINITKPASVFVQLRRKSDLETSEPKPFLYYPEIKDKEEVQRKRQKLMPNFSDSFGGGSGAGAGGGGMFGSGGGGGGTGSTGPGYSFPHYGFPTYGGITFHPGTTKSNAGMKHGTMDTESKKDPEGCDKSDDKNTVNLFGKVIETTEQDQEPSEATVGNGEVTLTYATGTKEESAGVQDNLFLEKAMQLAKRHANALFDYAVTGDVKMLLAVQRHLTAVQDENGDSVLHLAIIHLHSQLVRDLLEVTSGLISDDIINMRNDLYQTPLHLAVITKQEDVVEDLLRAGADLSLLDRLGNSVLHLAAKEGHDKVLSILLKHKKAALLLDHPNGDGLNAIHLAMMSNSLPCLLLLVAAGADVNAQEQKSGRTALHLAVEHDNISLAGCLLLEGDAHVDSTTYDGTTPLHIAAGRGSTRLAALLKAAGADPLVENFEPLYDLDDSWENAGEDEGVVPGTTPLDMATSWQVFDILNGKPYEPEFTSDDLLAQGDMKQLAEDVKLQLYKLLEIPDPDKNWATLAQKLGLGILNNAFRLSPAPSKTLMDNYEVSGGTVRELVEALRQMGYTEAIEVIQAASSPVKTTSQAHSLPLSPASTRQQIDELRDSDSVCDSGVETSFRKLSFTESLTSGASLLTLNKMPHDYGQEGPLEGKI
T1 sequence (Q00653 whole entry, looked up): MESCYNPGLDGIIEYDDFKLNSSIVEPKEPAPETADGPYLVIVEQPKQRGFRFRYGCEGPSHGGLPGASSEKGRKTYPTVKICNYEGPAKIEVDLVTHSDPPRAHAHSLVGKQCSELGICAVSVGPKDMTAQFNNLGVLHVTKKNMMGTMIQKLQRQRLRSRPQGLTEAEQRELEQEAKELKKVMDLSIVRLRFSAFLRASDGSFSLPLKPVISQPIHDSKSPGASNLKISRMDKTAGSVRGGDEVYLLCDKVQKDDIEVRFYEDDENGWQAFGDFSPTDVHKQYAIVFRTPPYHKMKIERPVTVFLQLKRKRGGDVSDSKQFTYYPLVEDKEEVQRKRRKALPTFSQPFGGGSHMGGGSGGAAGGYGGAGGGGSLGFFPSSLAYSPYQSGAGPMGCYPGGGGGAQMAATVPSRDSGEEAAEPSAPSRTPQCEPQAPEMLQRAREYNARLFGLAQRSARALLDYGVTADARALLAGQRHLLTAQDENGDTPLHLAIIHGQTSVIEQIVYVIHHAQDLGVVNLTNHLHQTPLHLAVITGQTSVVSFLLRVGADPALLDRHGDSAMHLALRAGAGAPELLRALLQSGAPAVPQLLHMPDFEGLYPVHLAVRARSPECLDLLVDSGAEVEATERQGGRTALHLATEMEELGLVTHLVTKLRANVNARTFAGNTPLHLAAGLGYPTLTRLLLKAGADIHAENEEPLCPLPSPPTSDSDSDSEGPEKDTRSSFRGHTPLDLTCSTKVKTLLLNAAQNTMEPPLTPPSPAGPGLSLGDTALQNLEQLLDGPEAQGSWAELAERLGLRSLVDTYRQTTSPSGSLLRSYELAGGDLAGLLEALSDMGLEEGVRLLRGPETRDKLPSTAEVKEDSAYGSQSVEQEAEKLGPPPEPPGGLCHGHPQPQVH
T1 sequence (Q04206 whole entry, looked up): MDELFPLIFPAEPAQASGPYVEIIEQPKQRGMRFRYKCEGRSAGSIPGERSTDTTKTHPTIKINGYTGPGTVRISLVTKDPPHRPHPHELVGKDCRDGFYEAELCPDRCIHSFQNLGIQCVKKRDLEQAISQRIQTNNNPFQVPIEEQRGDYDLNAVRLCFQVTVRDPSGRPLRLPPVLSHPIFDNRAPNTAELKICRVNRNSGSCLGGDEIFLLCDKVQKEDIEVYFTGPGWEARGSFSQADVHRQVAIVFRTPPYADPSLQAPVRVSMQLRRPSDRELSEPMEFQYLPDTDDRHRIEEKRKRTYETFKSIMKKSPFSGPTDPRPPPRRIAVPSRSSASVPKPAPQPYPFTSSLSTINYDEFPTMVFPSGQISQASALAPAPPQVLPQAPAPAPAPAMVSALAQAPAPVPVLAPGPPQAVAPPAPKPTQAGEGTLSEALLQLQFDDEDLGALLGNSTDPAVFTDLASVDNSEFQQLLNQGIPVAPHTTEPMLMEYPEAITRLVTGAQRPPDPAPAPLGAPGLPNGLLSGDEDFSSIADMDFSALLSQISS

SMILES	fold change (FC)
CC(=O)N[C@@H]1[C@@H](O[C@H](C)C(=O)N[C@@H](C)C(=O)N[C@H](CCC(=O)O)C(=O)NC2CCCCC2)[C@H](O)[C@@H](CO)O[C@H]1O	1
CCOC(=O)CC[C@@H](NC(=O)[C@H](C)NC(=O)[C@@H](C)O[C@H]1[C@H](O)[C@@H](CO)O[C@@H](O)[C@@H]1NC(C)=O)C(N)=O	1.6
CC(=O)N[C@@H]1[C@@H](O[C@H](C)C(=O)N[C@@H](C)C(=O)N[C@H](CCC(=O)O)C(=O)NCC(F)(F)C(F)(F)F)[C@H](O)[C@@H](CO)O[C@H]1O	0.8
CC(=O)N[C@@H]1[C@@H](O[C@H](C)C(=O)N[C@@H](C)C(=O)N[C@H](CCC(=O)O)C(=O)OC2CCCCC2)[C@H](O)[C@@H](CO)O[C@H]1O	4.6
CCOC(=O)CC[C@@H](NC(=O)[C@H](C)NC(=O)[C@@H](C)O[C@H]1[C@H](O)[C@@H](CO)O[C@@H](O)[C@@H]1NC(C)=O)C(=O)OCC	2.3
CC(=O)N[C@@H]1[C@@H](O[C@H](C)C(=O)N[C@@H](C)C(=O)N[C@H](CCC(=O)O)C(=O)O)[C@H](O)[C@@H](CO)O[C@H]1O	2.5

The remaining lines, values ahead:

fold change (FC)	SMILES
5.7	CCCCCCCCCCCCCCCCCCCCOC(=O)[C@@H](CCC(=O)O)NC(=O)[C@H](C)NC(=O)[C@@H](C)O[C@H]1[C@H](O)[C@@H](CO)O[C@@H](O)[C@@H]1NC(C)=O
4	CCOC(=O)[C@@H](CCC(=O)O)NC(=O)[C@H](C)NC(=O)[C@@H](C)O[C@H]1[C@H](O)[C@@H](CO)O[C@@H](O)[C@@H]1NC(C)=O
4.2	CC(=O)N[C@@H]1[C@@H](O[C@H](C)C(=O)N[C@@H](C)C(=O)N[C@H](CCC(=O)O)C(=O)OCCCl)[C@H](O)[C@@H](CO)O[C@H]1O
7.5	CCCCCCCCCCCCOC(=O)[C@@H](CCC(=O)O)NC(=O)[C@H](C)NC(=O)[C@@H](C)O[C@H]1[C@H](O)[C@@H](CO)O[C@@H](O)[C@@H]1NC(C)=O

target: T1, Nuclear factor NF-kappa-B complex (Homo sapiens); experiment: Activation of NF-KappaB (unknown origin) expressed in HEK293T cells assessed as fold change at 10 nM incubated for 12 hrs by Renilla luciferase assay; format: cell-based; conditions: filed as activator

SMILES	fold change (FC)
CC(=O)N[C@@H]1[C@@H](O[C@H](C)C(=O)N[C@@H](C)C(=O)N[C@H](CC(=O)O)C(N)=O)[C@H](O)[C@@H](CO)O[C@H]1O	1.85
CC(=O)N[C@@H]1[C@@H](O[C@H](C)C(=O)N[C@@H](C)C(=O)N[C@H](CCC(=O)O)C(=O)NC2CCCCC2)[C@H](O)[C@@H](CO)O[C@H]1O	1
CCOC(=O)CC[C@@H](NC(=O)[C@H](C)NC(=O)[C@@H](C)O[C@H]1[C@H](O)[C@@H](CO)O[C@@H](O)[C@@H]1NC(C)=O)C(N)=O	1.6
CC(=O)N[C@@H]1[C@@H](O[C@H](C)C(=O)N[C@@H](C)C(=O)N[C@H](CCC(=O)O)C(=O)NCC(F)(F)C(F)(F)F)[C@H](O)[C@@H](CO)O[C@H]1O	0.8
CC(=O)N[C@@H]1[C@@H](O[C@H](C)C(=O)N[C@@H](C)C(=O)N[C@H](CCC(=O)O)C(=O)OC2CCCCC2)[C@H](O)[C@@H](CO)O[C@H]1O	4.6
CCOC(=O)CC[C@@H](NC(=O)[C@H](C)NC(=O)[C@@H](C)O[C@H]1[C@H](O)[C@@H](CO)O[C@@H](O)[C@@H]1NC(C)=O)C(=O)OCC	2.3
CC(=O)N[C@@H]1[C@@H](O[C@H](C)C(=O)N[C@@H](C)C(=O)N[C@H](CCC(=O)O)C(=O)O)[C@H](O)[C@@H](CO)O[C@H]1O	2.5

Further lines, results first:

fold change (FC)	SMILES
5.7	CCCCCCCCCCCCCCCCCCCCOC(=O)[C@@H](CCC(=O)O)NC(=O)[C@H](C)NC(=O)[C@@H](C)O[C@H]1[C@H](O)[C@@H](CO)O[C@@H](O)[C@@H]1NC(C)=O
4	CCOC(=O)[C@@H](CCC(=O)O)NC(=O)[C@H](C)NC(=O)[C@@H](C)O[C@H]1[C@H](O)[C@@H](CO)O[C@@H](O)[C@@H]1NC(C)=O
4.2	CC(=O)N[C@@H]1[C@@H](O[C@H](C)C(=O)N[C@@H](C)C(=O)N[C@H](CCC(=O)O)C(=O)OCCCl)[C@H](O)[C@@H](CO)O[C@H]1O
7.5	CCCCCCCCCCCCOC(=O)[C@@H](CCC(=O)O)NC(=O)[C@H](C)NC(=O)[C@@H](C)O[C@H]1[C@H](O)[C@@H](CO)O[C@@H](O)[C@@H]1NC(C)=O

target: T1, Nuclear factor NF-kappa-B complex (Homo sapiens); experiment: Activation of NF-KappaB (unknown origin) expressed in HEK293T cells assessed as fold change at 100 nM incubated for 12 hrs by Renilla luciferase assay; format: cell-based; conditions: filed as activator

SMILES	fold change (FC)
CC(=O)N[C@@H]1[C@@H](O[C@H](C)C(=O)N[C@@H](C)C(=O)N[C@H](CC(=O)O)C(N)=O)[C@H](O)[C@@H](CO)O[C@H]1O	1.87
CC(=O)N[C@@H]1[C@@H](O[C@H](C)C(=O)N[C@@H](C)C(=O)N[C@H](CCC(=O)O)C(=O)NC2CCCCC2)[C@H](O)[C@@H](CO)O[C@H]1O	1
CCOC(=O)CC[C@@H](NC(=O)[C@H](C)NC(=O)[C@@H](C)O[C@H]1[C@H](O)[C@@H](CO)O[C@@H](O)[C@@H]1NC(C)=O)C(N)=O	2.8
CC(=O)N[C@@H]1[C@@H](O[C@H](C)C(=O)N[C@@H](C)C(=O)N[C@H](CCC(=O)O)C(=O)NCC(F)(F)C(F)(F)F)[C@H](O)[C@@H](CO)O[C@H]1O	0.9
CC(=O)N[C@@H]1[C@@H](O[C@H](C)C(=O)N[C@@H](C)C(=O)N[C@H](CCC(=O)O)C(=O)OC2CCCCC2)[C@H](O)[C@@H](CO)O[C@H]1O	6.8
CCOC(=O)CC[C@@H](NC(=O)[C@H](C)NC(=O)[C@@H](C)O[C@H]1[C@H](O)[C@@H](CO)O[C@@H](O)[C@@H]1NC(C)=O)C(=O)OCC	4.7
CC(=O)N[C@@H]1[C@@H](O[C@H](C)C(=O)N[C@@H](C)C(=O)N[C@H](CCC(=O)O)C(=O)O)[C@H](O)[C@@H](CO)O[C@H]1O	4.5

Other lines, results leading:

fold change (FC)	SMILES
7.35	CCCCCCCCCCCCCCCCCCCCOC(=O)[C@@H](CCC(=O)O)NC(=O)[C@H](C)NC(=O)[C@@H](C)O[C@H]1[C@H](O)[C@@H](CO)O[C@@H](O)[C@@H]1NC(C)=O
6.3	CCOC(=O)[C@@H](CCC(=O)O)NC(=O)[C@H](C)NC(=O)[C@@H](C)O[C@H]1[C@H](O)[C@@H](CO)O[C@@H](O)[C@@H]1NC(C)=O
6.6	CC(=O)N[C@@H]1[C@@H](O[C@H](C)C(=O)N[C@@H](C)C(=O)N[C@H](CCC(=O)O)C(=O)OCCCl)[C@H](O)[C@@H](CO)O[C@H]1O
6.5	CCCCCCCCCCCCOC(=O)[C@@H](CCC(=O)O)NC(=O)[C@H](C)NC(=O)[C@@H](C)O[C@H]1[C@H](O)[C@@H](CO)O[C@@H](O)[C@@H]1NC(C)=O

target: T1, Nuclear factor NF-kappa-B complex (Homo sapiens); experiment: Activation of NF-KappaB (unknown origin) expressed in HEK293T cells assessed as fold change at 1000 nM incubated for 12 hrs by Renilla luciferase assay; format: cell-based; conditions: filed as activator

SMILES	fold change (FC)
CC(=O)N[C@@H]1[C@@H](O[C@H](C)C(=O)N[C@@H](C)C(=O)N[C@H](CC(=O)O)C(N)=O)[C@H](O)[C@@H](CO)O[C@H]1O	1.9
CC(=O)N[C@@H]1[C@@H](O[C@H](C)C(=O)N[C@@H](C)C(=O)N[C@H](CCC(=O)O)C(=O)NC2CCCCC2)[C@H](O)[C@@H](CO)O[C@H]1O	2.9
CCOC(=O)CC[C@@H](NC(=O)[C@H](C)NC(=O)[C@@H](C)O[C@H]1[C@H](O)[C@@H](CO)O[C@@H](O)[C@@H]1NC(C)=O)C(N)=O	5.6
CC(=O)N[C@@H]1[C@@H](O[C@H](C)C(=O)N[C@@H](C)C(=O)N[C@H](CCC(=O)O)C(=O)NCC(F)(F)C(F)(F)F)[C@H](O)[C@@H](CO)O[C@H]1O	2.4
CC(=O)N[C@@H]1[C@@H](O[C@H](C)C(=O)N[C@@H](C)C(=O)N[C@H](CCC(=O)O)C(=O)OC2CCCCC2)[C@H](O)[C@@H](CO)O[C@H]1O	6.55
CCOC(=O)CC[C@@H](NC(=O)[C@H](C)NC(=O)[C@@H](C)O[C@H]1[C@H](O)[C@@H](CO)O[C@@H](O)[C@@H]1NC(C)=O)C(=O)OCC	6.5
CC(=O)N[C@@H]1[C@@H](O[C@H](C)C(=O)N[C@@H](C)C(=O)N[C@H](CCC(=O)O)C(=O)O)[C@H](O)[C@@H](CO)O[C@H]1O	6.1

The remaining lines, values ahead:

fold change (FC)	SMILES
5.7	CCCCCCCCCCCCCCCCCCCCOC(=O)[C@@H](CCC(=O)O)NC(=O)[C@H](C)NC(=O)[C@@H](C)O[C@H]1[C@H](O)[C@@H](CO)O[C@@H](O)[C@@H]1NC(C)=O
6.6	CCOC(=O)[C@@H](CCC(=O)O)NC(=O)[C@H](C)NC(=O)[C@@H](C)O[C@H]1[C@H](O)[C@@H](CO)O[C@@H](O)[C@@H]1NC(C)=O
6.55	CC(=O)N[C@@H]1[C@@H](O[C@H](C)C(=O)N[C@@H](C)C(=O)N[C@H](CCC(=O)O)C(=O)OCCCl)[C@H](O)[C@@H](CO)O[C@H]1O
6.3	CCCCCCCCCCCCOC(=O)[C@@H](CCC(=O)O)NC(=O)[C@H](C)NC(=O)[C@@H](C)O[C@H]1[C@H](O)[C@@H](CO)O[C@@H](O)[C@@H]1NC(C)=O
